Assay results as given in patent publication US9650339B2, “Inhibitors of histone demethylases” (Gilead Sciences, Inc., priority 2013, dated 2017).
pIC50: −log10 of the molar value.

Assays:
KDM4C (JMJD2C) = molecular target: T1, KDM4C (JMJD2C) (Homo sapiens, UniProt Q9H3R0); assay: Histone lysine demethylase AlphaLISA assay, KDM4C; assay type: biochemical; conditions: read-out: KDM4C HDME Inhibition IC50
T1 sequence (Q9H3R0 1-349): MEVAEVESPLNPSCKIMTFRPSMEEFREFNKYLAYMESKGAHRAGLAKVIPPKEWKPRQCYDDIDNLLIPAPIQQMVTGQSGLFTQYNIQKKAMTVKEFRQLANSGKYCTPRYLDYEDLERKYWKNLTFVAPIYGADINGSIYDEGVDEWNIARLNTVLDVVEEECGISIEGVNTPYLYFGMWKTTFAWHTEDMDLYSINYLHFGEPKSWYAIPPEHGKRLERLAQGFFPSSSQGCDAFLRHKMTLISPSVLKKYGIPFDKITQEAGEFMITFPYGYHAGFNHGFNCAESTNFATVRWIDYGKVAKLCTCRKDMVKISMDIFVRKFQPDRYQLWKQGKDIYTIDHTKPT
In short: (§1)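 Biotinylated methylated H3 peptides (K9, K4, K27 or K36 marks) served as substrate, with 25 μM L-Asc and 10 μM α-KG. Enzymes were preincubated 10 min, then exposed to compounds (3% DMSO solutions) 10 min; product detected by AlphaLISA acceptor and streptavidin donor beads at room temperature in dark.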

KDM2B (FBXL10) = molecular target: T2, KDM2B (FBXL10) (Homo sapiens, UniProt Q8NHM5); assay: Histone lysine demethylase AlphaLISA assay, KDM2B; assay type: biochemical; conditions: read-out: KDM2B HDME Inhibition IC50
T2 sequence (Q8NHM5 1-650): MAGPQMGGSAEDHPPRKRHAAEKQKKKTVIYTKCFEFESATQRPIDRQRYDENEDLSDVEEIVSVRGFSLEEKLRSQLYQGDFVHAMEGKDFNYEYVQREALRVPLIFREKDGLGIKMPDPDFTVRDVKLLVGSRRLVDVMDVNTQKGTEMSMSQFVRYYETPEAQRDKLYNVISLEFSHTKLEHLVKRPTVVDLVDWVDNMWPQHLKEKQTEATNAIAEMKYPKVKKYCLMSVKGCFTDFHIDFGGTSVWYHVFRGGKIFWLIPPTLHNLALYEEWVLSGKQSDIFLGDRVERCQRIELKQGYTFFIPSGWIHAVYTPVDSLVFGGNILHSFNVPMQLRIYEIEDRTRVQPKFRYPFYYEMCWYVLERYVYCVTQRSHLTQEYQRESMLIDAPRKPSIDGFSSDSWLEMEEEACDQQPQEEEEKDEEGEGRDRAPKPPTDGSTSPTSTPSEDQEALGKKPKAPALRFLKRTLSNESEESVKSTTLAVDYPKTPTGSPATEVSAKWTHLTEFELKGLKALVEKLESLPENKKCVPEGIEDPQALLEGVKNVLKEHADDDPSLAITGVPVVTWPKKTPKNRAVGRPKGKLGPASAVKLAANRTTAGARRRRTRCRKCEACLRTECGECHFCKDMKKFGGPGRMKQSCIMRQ
In short: as §1

Structure (SMILES)	pIC50 (KDM4C (JMJD2C))	pIC50 (KDM2B (FBXL10))
CN(C)CCNCc1cc(CNC(C#N)C2CC2)ccn1 (stereo not drawn) [Compound 21, 2-cyclopropyl-2-({[2-({[2-(dimethylamino)ethyl]-amino}methyl)pyridin-4-yl]methyl}amino)-acetonitrile]	< 5.60	< 5.60
CC(C#N)NCc1ccnc(CNCCCN(C)C)c1 (stereo not drawn) [Compound 22, 2-({[2-({[3-(dimethylamino)propyl]-amino}methyl)pyridin-4-yl]methyl}amino)-propanenitrile]	< 5.60	< 5.60
N#CCNCc1ccnc(CNCCCCN(Cc2ccccc2)C2CC2)c1 [Compound 23, 2-[({2-[({4-[benzyl(cyclopropyl)-amino]butyl}amino)-methyl]pyridin-4-yl}methyl)amino]-acetonitrile]	< 5.60	< 5.60
CNC(C#N)c1ccnc(CNCCCN(C)C)c1 (stereo not drawn) [Compound 24, 2-[2-({[3-(dimethylamino)propyl]-amino}methyl)pyridin-4-yl]-2-(methylamino)-acetonitrile]	5.60 to 6.60	< 5.60
CCN(CCN(C)C)C(=O)CNCc1cc(CNC(=O)C(F)(F)F)ccn1 [Compound 25, N-[(2-{[({[2-(dimethylamino)ethyl]-(ethyl)carbamoyl}-methyl)amino]methyl}-pyrtdin-4-yl)methyl]-2,2,2-trifluoroacetamide]	< 5.60	< 5.60
CN(C)C(=O)CNCc1cc(/C=N\C2CC2)ccn1 [Compound 33]	> 6.60	5.60 to 6.60
CN(C)C(=O)CNCc1cc(/C=N/CCCc2ccccc2)ccn1 [Compound 34, N,N-dimethyl-2-[({4-[[(3-phenylpropyl)imino]-methyl]pyridin-2-yl}methyl)amino]-acetamide]	5.60 to 6.60	< 5.60
CC1CC1/N=C/c1ccnc(CNCC(=O)N(C)C)c1 (stereo not drawn) [Compound 35, N,N-dimethyl-2-[({4-[N-(2-methylcyclopropyl)-carboximidoyl]pyridin-2-yl}methyl)amino]-acetamide]	5.60 to 6.60	5.60 to 6.60
CN(C)C(=O)CNCc1cc(/C=N/CCC2CCCCC2)ccn1 [Compound 36, 2-[({4-[[(2-cyclohexylethyl)imino]-methyl]pyridin-2-yl}methyl)amino]-N,N-dimethylacetamide]	5.60 to 6.60	< 5.60
CN(C)CCC/N=C/c1ccnc(CNCCCN(C)C)c1 [Compound 37, [3-(dimethylamino)propyl]-({4-[{[3-(dimethylamino)propyl]-imino}methyl]pyridin-2-yl}methyl)amine]	< 5.60	< 5.60
CN(C)CCCNCc1cc(/C=N/CCN(C)C)ccn1 [Compound 38, ({4-[{[2-(dimethylamino)ethyl]-imino}methyl]pyridin-2-yl}methyl)[3-(dimethylamino)-propyl]amine]	5.60 to 6.60	< 5.60
CCSCCNCc1cc(/C=N/C2CC2)ccn1 [Compound 39, N-{[2-({[2-(ethylsulfanyl)-ethyl]amino}methyl)pyridin-4-yl]methylidene}-cyclopropanamine]	< 5.60	5.60 to 6.60
CN1CCCC1CCNCc1cc(/C=N/C2CC2)ccn1 (stereo not drawn) [Compound 40, N-{[2-({[2-(l-methylpyrrolidin-2-yl)ethyl]amino}methyl)-pyridin-4-yl]methylidene}-cyclopropanamine]	< 5.60	< 5.60
CN(CCCNCc1cc(/C=N/C2CC2)ccn1)Cc1ccccc1 [Compound 41, N-({2-[({3-[benzyl(methyl)amino]-propyl}amino)methyl]-pyridin-4-yl}methylidene)-cyclopropanamine]	5.60 to 6.60	< 5.60
C(=N/C1CC1)/c1ccnc(CNCCCN2CCCC2)c1 [Compound 42, N-{[2-({[3-(pyrrolidin-1-yl)propyl]amino}-methyl)pyridin-4-yl]methylidene}-cyclopropanamine]	< 5.60	< 5.60
CN(C)C/C=C/CNCc1cc(/C=N/C2CC2)ccn1 [Compound 43, N-{[2-({[(2E)-4-(dimethylamino)but-2-en-1-yl]amino}-methyl)pyridin-4-yl]methylidene}-cyclopropanamine]	> 6.60	< 5.60
C(=N\C1CC1)/c1ccnc(CNCCCCN2CCC2)c1 [Compound 44, N-{[2-({[4-(azetidin-1-yl)butyl]amino}methyl)-pyridin-4-yl]methylidene}-cyclopropanamine]	> 6.60	< 5.60
CN(C)CCCCNCc1cc(/C=N\C2CC2)ccn1 [Compound 45, N-{[2-({[4-(dimethylamino)butyl]-amino}methyl)-pyridin-4-yl]methylidene}-cyclopropanamine]	< 5.60	< 5.60
CN(C)CC1CCC(CNCc2cc(/C=N/C3CC3)ccn2)CC1 (stereo not drawn) [Compound 46, N-[(2-{[({4-[(dimethylamino)-methyl]cyclohexyl}-methyl)amino]-methyl}pyridin-4-yl)methylidene]-cyclopropanamine]	< 5.60	< 5.60
CN(C)CCCCCNCc1cc(/C=N/C2CC2)ccn1 [Compound 47, N-{[2-({[5-(dimethylamino)-pentyl]amino}-methyl)pyridin-4-yl]methylidene}-cyclopropanamine]	< 5.60	< 5.60
CCN(CC)CCCCNC(=O)CNCc1cc(/C=N/C2CC2)ccn1 [Compound 48, 2-[({4-[N-cyclopropyl-carboximidoyl]pyridin-2-yl}methyl)amino]-N-[4-(diethylamino)-butyl]acetamide]	5.60 to 6.60	< 5.60
O=C(CNCc1cc(/C=N/C2CC2)ccn1)N1CCC[C@@H]1CN1CCCC1 [Compound 49, 2-[({4-[N-cyclopropyl-carboximidoyl]pyridin-2-yl}methyl)amino]-1-[(2R)-2-(pyrrolidin-1-ylmethyl)pyrrolidin-1-yl]ethan-1-one]	5.60 to 6.60	< 5.60
CCN(CCC#N)C(=O)CNCc1cc(/C=N/C2CC2)ccn1 [Compound 50, N-(2-cyanoethyl)-2-[({4-[N-cyclopropyl-carboximidoyl]-pyridin-2-yl}methyl)amino]-N-ethylacetamide]	5.60 to 6.60	5.60 to 6.60
CCN1CCCC1CNC(=O)CNCc1cc(/C=N/C2CC2)ccn1 (stereo not drawn) [Compound 51, 2-[({4-[N-cyclopropyl-carboximidoyl]-pyridin-2-yl}methyl)-amino]-N-[(1-ethylpyrrolidin-2-yl)methyl]acetamide]	< 5.60	< 5.60
CN(CCCn1cccn1)C(=O)CNCc1cc(/C=N/C2CC2)ccn1 [Compound 52, 2-[({4-[N-cyclopropyl-carboximidoyl]-pyridin-2-yl}methyl)amino]-N-methyl-N-[3-(1H-pyrazol-1-yl)propyl]acetamide]	5.60 to 6.60	5.60 to 6.60
O=C(CNCc1cc(/C=N/C2CC2)ccn1)NC1CCN(Cc2ccccc2)C1 (stereo not drawn) [Compound 53, N-(1-benzylpyrrolidin-3-yl)-2-[({4-[N-cyclopropyl-carboximidoyl]pyridin-2-yl}methyl)amino]-acetamide]	5.60 to 6.60	5.60 to 6.60
CN1CCN(C(=O)CNCc2cc(/C=N/C3CC3)ccn2)CC1 [Compound 54, 2-[({4-[N-cyclopropyl-carboximidoyl]-pyridin-2-yl}methyl)amino]-1-(4-methylpiperazin-1-yl)ethan-1-one]	5.60 to 6.60	< 5.60
